Measured values from article PMC3606118, “Salvianolic Acid A, a Novel Matrix Metalloproteinase-9 Inhibitor, Prevents Cardiac Remodeling in Spontaneously Hypertensive Rats” (PLoS ONE, 2013).

Columns and labels:
[1] = target: T1, MMP-9 (Rattus norvegicus, UniProt P50282); experiment: In-gel gelatin zymography of SHR heart, MMP-9; type: in vivo, SHR rats; details: SalA i.p. everyday for 4 weeks
T1 construct: twenty µg protein from tissue; from tissue; host or cells: heart of spontaneously hypertensive rats (SHR)
T1 sequence (P50282 108-708): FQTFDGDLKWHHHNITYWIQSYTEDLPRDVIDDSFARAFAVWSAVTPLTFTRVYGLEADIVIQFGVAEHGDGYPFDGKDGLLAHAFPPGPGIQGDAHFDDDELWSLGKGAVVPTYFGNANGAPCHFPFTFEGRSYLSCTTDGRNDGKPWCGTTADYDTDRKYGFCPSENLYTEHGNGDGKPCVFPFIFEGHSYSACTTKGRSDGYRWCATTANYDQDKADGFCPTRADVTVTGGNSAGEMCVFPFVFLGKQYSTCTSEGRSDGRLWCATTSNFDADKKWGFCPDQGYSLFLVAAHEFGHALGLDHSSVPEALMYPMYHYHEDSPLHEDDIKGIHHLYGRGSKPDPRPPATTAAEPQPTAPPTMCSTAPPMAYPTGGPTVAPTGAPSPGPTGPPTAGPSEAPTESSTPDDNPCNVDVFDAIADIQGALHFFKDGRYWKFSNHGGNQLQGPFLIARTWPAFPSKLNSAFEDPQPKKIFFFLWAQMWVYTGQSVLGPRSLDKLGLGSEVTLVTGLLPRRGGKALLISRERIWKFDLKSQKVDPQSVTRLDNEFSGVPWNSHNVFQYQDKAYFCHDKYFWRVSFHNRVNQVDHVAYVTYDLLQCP
Method: The enzymatic activities of H9c2 cells or tissue samples were detected by in-gel gelatin zymography. In brief, twenty µg protein from tissue or twenty microliter culture supernatant of H9c2 cells with different treatments was electrophoresed in 10% SDS-PAGE containing 1% gelatin as MMP substrate under non-reducing conditions. After electrophoresis, the gel was washed in 1% Triton X-100 for 1 h, rinsed in water, and incubated overnight in substrate buffer containing 50 mmol/L Tris-HCl, 5 mmol/L CaCl2, and 150 mmol/L NaCl (pH 7.5) at 37°C with gentle shaking. Then, the gel was stained in 0.1% Coomassie Blue R-250 and destained using 10% methanol, 5% acetic acid solution. The gel was scanned using a MiniBis system (DNR Bio-Imaging Systems Ltd) and the detected protein species corresponding to the expected molecular weight of MMP-9 was visualized.
2-month old male SHR rats were given rodent chow containing 8% NaCl 4 weeks before SaA treatment to the end of the experiment. Rats were divided into four groups (20 per group) and were injected intraperitoneally with saline or SalA everyday at the indicated dose for 4 weeks. The four groups were named as SalA (0 mg/kg), SalA (2.5 mg/kg), SalA (5 mg/kg), SalA (10 mg/kg) basing on the dose of SalA, respectively.

[2] = system: neonatal cardiac fibroblasts; experiment: Myofibroblast transformation (α-SMA immunofluorescence) induced by MMP-9 CD; type: cell-based, Wistar rats; details: 1 or 10 µmol/L SalA, 200 nmol/L MMP-9 CD, 24 h
Method: Primary cardiac fibroblast was obtained from neonatal rats and National Institutes of Health (NIH) Guide for the Care and Use of Laboratory Animals was followed throughout. Wistar rats (2–4 day old) were sacrificed by cervical dislocation; ventricles were minced and digested with 0.1% trypsin at 37°C for 8 min. The liberated cells were collected by centrifugations; non-digested chunk materials were further digested in 0.1% trypsin for an additional 8 min. This digestion procedure was repeated 3–4 times. All the liberated cells were pelleted by centrifugation at 1,000 rpm for 10 min, re-suspended in DMEM containing 10% fetal bovine serum (FBS), and cultured in a 100-mm noncoated culture flask at 37°C with 5% CO2 for 2 h. Adherent cardiac fibroblasts were collected and maintained in DMEM supplemented with 10% FBS, 100 U/mL penicillin, 100 µg/mL streptomycin [12]. Cardiac fibroblasts were treated by vehicle (Con); 200 nmol/L MMP-9 CD (MMP-9); 200 nmol/L MMP-9 CD plus 1 µmol/L SalA [MMP-9/SalA(1)]; or 200 nmol/L MMP-9 CD plus 10 µmol/L SalA [MMP-9/SalA(10)] for the following research. All the detections were conducted after 24 h treatment.
α-SMA expression was used to evaluate the effect of SalA on myofibroblast transformation from fibroblast induced by MMP-9 CD. Neonatal cardiac fibroblasts were cultured on glass slides until reaching ∼70% confluence. […]

SMILES: O=C(/C=C/c1ccc(O)c(O)c1/C=C/c1ccc(O)c(O)c1)O[C@H](Cc1ccc(O)c(O)c1)C(=O)O [SalA, salvianolic acid A]
- MMP-9 activity in heart of SHRs [1]: inhibited by SalA significantly
- α-SMA up-regulation (myofibroblast transformation) induced by MMP-9 CD [2]: reversed the effects of MMP-9 CD
